Consider 18 compounds from patent EP0263213B1, “C20 Through C26 amino steroids” (THE UPJOHN COMPANY, priority 1986, dated 1988).

Counter-ions that a name gives are not always drawn.

The first assay relates to rat brain synaptosomes. As to the kind of experiment: Malonyldialdehyde (MDA) Formation Assay. The assay is classed as biochemical. Conditions: active = inhibits MDA formation by 50% or more at 200»M or less; 10 min at 37°, pH 7.0, 150 uM Fe+++ and 50 uM Fe++. The procedure:
Since lipid peroxidation is involved in the pathophysiology of central nervous system trauma, compounds which inhibit MDA formation are useful in treating the conditions listed below.
While not necessary to determine MDA formation, the above assays have been modified as follows: rat brain synaptosomes are prepared as described in the Example about the conjugated diene assay, except that the final wash of the synaptosomes and final suspension are in physiological (normal) saline in which the pH has been adjusted to 7.0. The synaptosomes are incubated for 10 min at 37° in physiological (normal) saline pH 7.0 (total volume = 100 ul) containing; 10 ul synaptosomal suspension, 10% DMSO plus or minus drug, 150 uM Fe⁺⁺⁺ and 50 uM Fe++. The incubation is started by the rapid addition of iron to the otherwise complete reaction. The iron solutions are prepared fresh as ferric chloride and ferrous ammonium sulfate in argon-purged water. Following the 10 min incubation, the reaction is stopped by the addition of 500 ul ice-cold 12% trichloroacetic acid prepared in 0.5 N hydrochoric acid. Water (300 ul) is then added along with 100 ul of freshly prepared thiobarbituric acid (3.3% in 0.5N sodium hydroxide) and 10 ul of 5mM desferrioxamine. The sample is then heated in a boiling water bath for 20 minutes. The samples are cooled and centrifuged for 15 minutes at 1500 xg and the absorbance of the supernatant fraction is read at 532 nm. The % inhibition of MDA formation is calculated by dividing the absorbance of sample containing drug by the absorbance of samples incubated without drug. Reaction blanks are samples incubated in the absence of iron. A compound that inhibits MDA formation by 50% or more at a concentration of 200»M or less is considered "active".
As for `C[C@]12CCC(=O)C=C1CC[C@@H]1C2=CC[C@]2(C)[C@@H](CCN3CCN(c4cc(N5CCCC5)nc(N5CCCC5)n4)CC3)CC[C@@H]12.Cl` [Example 104, 21-[4-(2,6-Bis(1-pyrrolidinyl)-4-pyrimidinyl)-1-piperazinyl]pregna-4,9(11)-dien-3-one hydrochloride], the “inhibition of MDA formation” value is recorded as “demonstrate such activity by inhibition of MDA formation”.
For `C[C@]12CC[C@H]3[C@@H](CCC4=CC(=O)CC[C@@]43C)[C@@H]1CC[C@@H]2CCN1CCN(c2cc(N3CCCC3)nc(N3CCCC3)n2)CC1.Cl` [Example 107], the “inhibition of MDA formation” value was “demonstrate such activity by inhibition of MDA formation”.
With `C[C@@]12C(=CC(=O)C[C@@H]1C#N)CC[C@@H]1C2=CC[C@]2(C)[C@@H](CCN3CCN(c4cc(N5CCCC5)nc(N5CCCC5)n4)CC3)CC[C@@H]12.Cl.Cl.Cl.O` [Example 110], the “inhibition of MDA formation” value is given as “demonstrate such activity by inhibition of MDA formation”.
For `C[C@H]1C[C@H]2[C@@H]3C[C@H](F)C4=CC(=O)CC[C@]4(C)C3=CC[C@]2(C)[C@@]1(O)C(=O)CN1CCN(c2cc(N3CCCC3)nc(N3CCCC3)n2)CC1.Cl.Cl` [Example 118], the “inhibition of MDA formation” value is given as “demonstrate such activity by inhibition of MDA formation”.
Consider `C[C@@H]1C[C@H]2[C@@H]3CCC4=CC(=O)C=C[C@]4(C)[C@H]3CC[C@]2(C)[C@H]1C(=O)CN1CCN(c2cc(N3CCCC3)nc(N3CCCC3)n2)CC1.Cl.Cl` [Example 121], for which the “inhibition of MDA formation” value is “demonstrate such activity by inhibition of MDA formation”.
`COc1ccc2c(c1)CC[C@@H]1[C@@H]2CC[C@@]2(C)[C@H]1CC[C@]2(O)C(=O)CN1CCN(c2cc(N3CCCC3)nc(N3CCCC3)n2)CC1` [Example 125]: the “inhibition of MDA formation” value is reported as “demonstrate such activity by inhibition of MDA formation”.
In the case of `CCNc1cccnc1N1CCN(CC(=O)[C@H]2[C@H](C)C[C@H]3[C@@H]4CCC5=CC(=O)C=C[C@]5(C)C4=CC[C@@]32C)CC1.Cl` [Example 127, 21-[4-[3-(Ethylamino)-2-pyridinyl]piperazinyl]-16α-methylpregna-1,4,9(11)-triene-3,20-dione hydrochloride], the “inhibition of MDA formation” value is “demonstrate such activity by inhibition of MDA formation”.
Take `C[C@]12CC[C@@H]3c4ccc(O)cc4CC[C@H]3[C@@H]1CC[C@]2(O)C(=O)CN1CCN(c2cc(N3CCCC3)nc(N3CCCC3)n2)CC1` [Example 129, 3,17α-Dihydroxy-21-[4-[2,6-bis(1-pyrrolidinyl)-4-pyrimidinyl]-1-piperazinyl]-19-norpregna-1,3,5-(10)-trien-20-one (E)-2-butenedioate 1:1 salt]: the “inhibition of MDA formation” value was “demonstrate such activity by inhibition of MDA formation”.

In a further assay the test system is arachidonic acid. As to the kind of experiment: Arachidonic Acid Antagonism Assay (AAAA). It counts as in vivo. The conditions noted are these: 100mg/kg; LD50 of sodium arachidonate, male CF-1 mice, IV. As to the method:
Since these metabolites contribute to the pathological problems associated with stroke, spinal trauma and head injury, compounds which antagonize arachidonic acid are useful in treating stroke, spinal trauma and head injury.
While not necessary to determine arachidonic acid antagonism, the above assay has been modified as follows: Charles River male CF-1 mice weighing 18-22g are treated IV with the test compound dissolved in 1.0% Tween-80 and 0.1% hydrochloric acid in distilled water, 0.2 ml total volume. Fifteen minutes later sodium arachidonate (90% pure) in physiological (normal) saline is injected into the tail vein. The LD₅₀ is measured using the Spearman-Karber method with a log dose interval of 0.05 (N=6). Compounds which elevate the LD₅₀ outside of the 95% confidence interval of the control LD₅₀ are considered to be "active".
Turning to `CN1CCN(c2cc(N3CCN(CC(=O)[C@@]4(O)CC[C@H]5[C@@H]6CCC7=CC(=O)CC[C@]7(C)C6=CC[C@@]54C)CC3)nc(N3CCN(C)CC3)n2)CC1.CS(=O)(=O)O.O` [Example 19, 17α-Hydroxy-21-[4-[2,6-bis(4-methyl-1-piperazinyl)-4-pyrimidinyl]-1-piperazinyl]pregna-4,9(11)diene-3,20-dione methanesulfonate hydrate], the “% of Control LD₅₀ 100mg/kg” value amounted to 141%.

The same assay, now with this note: active = elevates the LD50 of sodium arachidonate outside the 95% confidence interval of the control LD50; test compound IV 15 minutes before; male CF-1 mice.
Take `CCN(CC)c1cc(N2CCN(CC(=O)[C@@]3(O)CC[C@H]4[C@@H]5CCC6=CC(=O)CC[C@]6(C)C5=CC[C@@]43C)CC2)nc(N)n1` [Example 4, 21-[4-[2-Amino-6-(diethylamino)-4-pyrimidinyl]-1-piperazinyl]-17α-hydroxypregna-4,9(11)-diene-3,20-dione]: the arachidonic acid antagonism entry was “demonstrate arachidonic acid antagonism”.
For `CN1CCN(c2cc(N3CCN(CC(=O)[C@@]4(O)CC[C@H]5[C@@H]6CCC7=CC(=O)CC[C@]7(C)C6=CC[C@@]54C)CC3)nc(N3CCN(C)CC3)n2)CC1.CS(=O)(=O)O.O` [Example 19, 17α-Hydroxy-21-[4-[2,6-bis(4-methyl-1-piperazinyl)-4-pyrimidinyl]-1-piperazinyl]pregna-4,9(11)diene-3,20-dione methanesulfonate hydrate], the arachidonic acid antagonism entry is reported as “demonstrate arachidonic acid antagonism”.
As to `C[C@H]1C[C@@H]2[C@H]([C@@H](O)C[C@@]3(C)[C@H]2CC[C@]3(O)C(=O)CN2CCN(c3ccccn3)CC2)[C@@]2(C)C=CC(=O)C=C12` [Example 21, 11β-17α-dihydroxy-6α-methyl-21-[4-(2-pyridinyl)-1-piperazinyl]pregna-1,4-diene-3,20-dione], the arachidonic acid antagonism result is listed as “demonstrate arachidonic acid antagonism”.
The same measure, in the same setting: then `COc1cccc(N2CCN(CC(=O)[C@@]3(O)CC[C@H]4[C@@H]5CCC6=CC(=O)CC[C@]6(C)C5=CC[C@@]43C)CC2)n1.CS(=O)(=O)O` [Example 22, 17α-hydroxy-21-[4-(6-methoxy-2-pyridinyl)-1-piperazinyl]pregna-4,9(11)-diene-3,20-dione monomethanesulfonate], with “demonstrate arachidonic acid antagonism”; and `C[C@]12C=CC(=O)C=C1CC[C@@H]1[C@@H]2[C@@H](O)C[C@@]2(C)[C@H]1CC[C@]2(O)C(=O)CN1CCN(c2ccccn2)CC1` [Example 25, 11β,17α-dihydroxy-21-[4-(2-pyridinyl)-1-piperazinyl]-pregna-1,4-diene-3,20-dione dihydrochloride], with “demonstrate arachidonic acid antagonism”; and `C[C@]12CCC(=O)C=C1CC[C@@H]1[C@@H]2[C@H](O)C[C@@]2(C)[C@H]1CC[C@]2(O)C(=O)CN1CCN(c2ccc(F)cc2)CC1` [Example 29, 21-[4-(4-fluorophenyl)-1-piperazinyl]-11α,17α-dihydroxypregn-4-ene-3,20-dione dihydrochloride], with “demonstrate arachidonic acid antagonism”.

The next assay deals with rat brain synaptosomes. As to the kind of experiment: Conjugated Diene Formation Assay. It counts as biochemical. The conditions noted are these: active = inhibits conjugated diene formation by 50% or more; 100 »M (or less) of drug, 100 »M hydrogen peroxide, 200 »M ferrous ammonium sulfate. The text has this: The formation of conjugated dienes as assayed by Braughler, J. Neurochem., 44, 1282 (1985), Bucher, Fund. Applied Tox., 3, 222 (1983) and Tein, Arch. Biochem. Biophy., 216, 142 (1982) is a standard pharmacological laboratory procedure useful for identifying compounds which inhibit lipid peroxidation. Since lipid peroxidation is involved in the pathophysiology of central nervous system trauma, compounds which inhibit conjugated diene formation are useful in treating the conditions listed below.
44, 1282 (1985). Synaptosomal suspension (10 »l) is added to 1 ml of physiological (normal) saline containing 1 % Lubrol PX (Sigma Chemical Co. St. Louis, Mo.), 100 »M hydrogen peroxide and 100 »M (or less) of the drug to be tested prepared in either absolute ethanol or water depending upon solubility. The reaction is started by the rapid addition of 200 »M ferrous ammonium sulfate is prepared in argon-purged water. The sample is rapidly mixed and the change in absorbance at 232nm is followied in a Gilford Response Spectrophotometer equipped with a rapid sampler. Due to the rapidity of the reaction, rapid addition of the iron, rapid mixing and sampling are obligatory to the accuracy of the assay. For best results absorbance readings of one/sec should be started within 5 sec following the addition of iron. The initial linear rate of absorbance change during the first 30 sec of reaction are compared with the rate of a reaction containing all reagents except synaptosomes. The difference in rates is the rate of conjugated diene formation. Rates with drug are compared to rates obtained in the absence of drug and the % inhibition is calculated. A compound that inhibits conjugated diene formation by 50% or more is considered to be "active".
`CCN(CC)c1cc(N2CCN(CC(=O)[C@@]3(O)CC[C@H]4[C@@H]5CCC6=CC(=O)CC[C@]6(C)C5=CC[C@@]43C)CC2)nc(N)n1` [Example 4, 21-[4-[2-Amino-6-(diethylamino)-4-pyrimidinyl]-1-piperazinyl]-17α-hydroxypregna-4,9(11)-diene-3,20-dione]: the “inhibition of conjugated diene formation” value was “demonstrate such activity by inhibition of conjugated dienes”.
Take `C[C@]12CCC(=O)C=C1CC[C@@H]1C2=CC[C@@]2(C)[C@H]1CC[C@]2(O)C(=O)CN1CCC(O)(c2ccc(C(F)(F)F)cc2)CC1` [Example 5, 17α-Hydroxy-21-[4-hydroxy-4-(4-trifluoromethyl)phenyl-1-piperidinyl]pregna-4,9(11)-diene-3,20-dione]: the “inhibition of conjugated diene formation” value is “demonstrate such activity by inhibition of conjugated dienes”.
As to `C[C@@H]1C[C@H]2[C@@H]3CCC4=CC(=O)C=C[C@]4(C)[C@H]3[C@H](O)C[C@]2(C)[C@H]1C(=O)CN1CCN(c2cc(N3CCCC3)nc(N3CCCC3)n2)CC1` [Example 84], the “inhibition of conjugated diene formation” value is reported as “demonstrate such activity by inhibition of conjugated dienes”.
As for `C[C@]12C=CC(=O)C=C1CC[C@@H]1C2=CC[C@]2(C)[C@@H](C(=O)CN3CCN(c4cc(N5CCCC5)nc(N5CCCC5)n4)CC3)CC[C@@H]12.Cl.Cl` [Example 111], the “inhibition of conjugated diene formation” value is recorded as “demonstrate such activity by inhibition of conjugated dienes”.
`CC(CN1CCN(c2cc(N3CCCC3)nc(N3CCCC3)n2)CC1)[C@H]1CC[C@H]2[C@@H]3CCC4=CC(=O)C=C[C@]4(C)[C@H]3CC[C@]12C.CS(=O)(=O)O.O` (some centres unmarked) [Example 112]: the “inhibition of conjugated diene formation” value is given as “demonstrate such activity by inhibition of conjugated dienes”.
